In general, pIC50 refers to −log10 of the IC50, conventionally taken in molar units.

pIC50: −log10 of the molar value. Counter-ions that a name gives are not always drawn.

Tested on in the first data set: not listed separately
Briefly: Tolerability after oral administration to rats. Type of data set: in vivo. As to conditions: 30 mg/kg.
Regarding `Cn1c(NCc2ccccc2)nc2nc(N3CCCC(N)C3)n(Cc3ccccc3)c2c1=O` (stereo not shown) [Example 1, 8-(3-amino-piperidin-1-yl)-7-benzyl-2-benzylamino-1-methyl-1,7-dihydro-purin-6-one], the “toxic side effects or changes in the animals' behaviour” value is given as “no toxic side effects or changes in the animals' behaviour could be detected”.

For another data set, the target named is T1, DPP-IV (Homo sapiens, UniProt P27487).
T1 construct: an extract of human colon carcinoma cell line Caco-2 is used as the DPP IV source; endogenous in cells; host or cells: Caco-2 (human colon carcinoma), differentiated to induce DPP-IV expression; Nonidet-P40 solubilised extract
T1 sequence (P27487 whole entry): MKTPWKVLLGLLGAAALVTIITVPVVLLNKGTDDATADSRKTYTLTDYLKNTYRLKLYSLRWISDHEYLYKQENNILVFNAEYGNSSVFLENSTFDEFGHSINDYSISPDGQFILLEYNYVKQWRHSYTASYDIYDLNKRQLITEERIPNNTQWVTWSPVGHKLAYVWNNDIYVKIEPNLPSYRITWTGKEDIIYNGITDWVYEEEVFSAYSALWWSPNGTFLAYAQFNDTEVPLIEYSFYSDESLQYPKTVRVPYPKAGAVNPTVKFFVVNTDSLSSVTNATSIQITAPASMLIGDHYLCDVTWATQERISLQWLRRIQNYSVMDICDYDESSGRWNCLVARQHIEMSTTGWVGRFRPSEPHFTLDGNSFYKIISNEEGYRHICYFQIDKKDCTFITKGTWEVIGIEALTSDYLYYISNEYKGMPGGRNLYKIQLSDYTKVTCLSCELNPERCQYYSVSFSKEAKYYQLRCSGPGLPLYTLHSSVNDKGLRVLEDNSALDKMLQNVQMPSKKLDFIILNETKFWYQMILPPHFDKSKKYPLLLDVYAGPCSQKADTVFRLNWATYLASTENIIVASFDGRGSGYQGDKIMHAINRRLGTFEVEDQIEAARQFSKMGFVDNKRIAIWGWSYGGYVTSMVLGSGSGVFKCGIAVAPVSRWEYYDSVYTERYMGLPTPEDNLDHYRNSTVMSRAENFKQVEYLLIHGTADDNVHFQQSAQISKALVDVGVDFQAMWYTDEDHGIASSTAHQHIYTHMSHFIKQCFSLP
Nature of the data set: DPP-IV assay with Caco-2 cell extract as DPP IV source, AFC substrate, fluorescence. It counts as biochemical. The following applies: extract of human colon carcinoma cell line Caco-2; substrate 100 μM; 60 minutes at ambient temperature; read-out: DPP IV inhibition IC50. As to the method:
The differentiation of the cells in order to induce the DPP-IV expression was carried out as described by Reiher et al. in an article entitled “Increased expression of intestinal cell line Caco-2”, which appeared in Proc. Natl. Acad. Sci. Vol. 90, pages 5757-5761 (1993). The cell extract was obtained from cells solubilised in a buffer (10 mM Tris HCl, 0.15 M NaCl, 0.04 t.i.u. aprotinin, 0.5% Nonidet-P40, pH 8.0) by centrifuging at 35,000 g for 30 minutes at 4° C. (to remove cell debris).
The DPP-IV assay was carried out as follows:
50 μl substrate solution (AFC; AFC is amido-4-trifluoromethylcoumarin), final concentration 100 μM, were placed in black microtitre plates. 20 μl of assay buffer (final concentrations 50 mM Tris HCl pH 7.8, 50 mM NaCl, 1% DMSO) was pipetted in. The reaction was started by adding 30 μl of solubilised Caco-2 protein (final concentration 0.14 μg of protein per well). The test substances to be investigated were typically added prediluted in 20 μl, and the volume of assay buffer was then reduced accordingly. The reaction was carried out at ambient temperature, incubating for 60 minutes. Then the fluorescence was measured in a Victor 1420 Multilabel Counter, the excitation wavelength being 405 nm and the emission wavelength being 535 nm. Blank readings (corresponding to 0% activity) were obtained in mixtures without any Caco-2 protein (volume replaced by assay buffer), control values (corresponding to 100% activity) were obtained in mixtures with no substance added.
Consider `CC(C)=CCn1c(N2CCCC(N)C2)nc2nc(C)n(Cc3cccc4ccccc34)c(=O)c21` (stereo not shown) [1(26), 8-(3-amino-piperidin-1-yl)-2-methyl-7-(3-methyl-but-2-en-1-yl)-1-[(naphthalen-1-yl)methyl]-1,7-dihydro-purin-6-one], for which the pIC50 is 7.40.

For the compound `NC1CCCN(c2nc3nc(SCc4ccccc4)[nH]c(=O)c3n2Cc2ccccc2)C1` (stereo not shown) [1(15), 8-(3-amino-piperidin-1-yl)-7-benzyl-2-benzylsulphanyl-1,7-dihydro-purin-6-one trifluoroacetate], the pIC50 is 7.24.

On to `CC(C)Nc1nc2nc(N3CCCC(N)C3)n(Cc3ccccc3)c2c(=O)n1C` (stereo not shown) [1(3), 8-(3-amino-piperidin-1-yl)-7-benzyl-2-isopropylamino-1-methyl-1,7-dihydro-purin-6-one trifluoroacetate], for which the pIC50 is 6.96.

Take `Cn1c(NCc2ccc(F)cc2)nc2nc(N3CCCC(N)C3)n(Cc3ccccc3)c2c1=O` (stereo not shown) [1(1), 8-(3-amino-piperidin-1-yl)-7-benzyl-2-(4-fluoro-benzylamino)-1-methyl-1,7-dihydro-purin-6-one trifluoroacetate]: the pIC50 was 7.62.

Take `Cc1nc2nc(N3CCCC(N)C3)n(Cc3ccccc3)c2c(=O)n1C` (stereo not shown) [1(11), 8-(3-amino-piperidin-1-yl)-7-benzyl-1-methyl-2-methyl-1,7-dihydro-purin-6-one trifluoroacetate]: the pIC50 is 7.27.

`Cn1c(N2CCCCC2)nc2nc(N3CCCC(N)C3)n(Cc3ccccc3)c2c1=O` (stereo not shown) [1(7), 8-(3-amino-piperidin-1-yl)-7-benzyl-1-methyl-2-(piperidin-1-yl)-1,7-dihydro-purin-6-one hydrochloride]: the negative-log IC50 (pIC50) is 6.36.

For the compound `Cn1c(NCC2CCCCC2)nc2nc(N3CCCC(N)C3)n(Cc3ccccc3)c2c1=O` (stereo not shown) [1(6), 8-(3-amino-piperidin-1-yl)-7-benzyl-2-cyclohexylmethylamino-1-methyl-1,7-dihydro-purin-6-one trifluoroacetate], the pIC50 was 7.32.

Consider `CC(C)=CCn1c(N2CCCC(N)C2)nc2nc(CCc3ccccc3)n(C)c(=O)c21` (stereo not shown) [1(12), 8-(3-amino-piperidin-1-yl)-1-methyl-7-(3-methyl-but-2-en-1-yl)-2-(2-phenylethyl)-1,7-dihydro-purin-6-one trifluoroacetate], for which the pIC50 is 7.74.

Take `CC(C)=CCn1c(N2CCCC(N)C2)nc2nc(C)n(Cc3ccccc3)c(=O)c21` (stereo not shown) [1(25), 8-(3-amino-piperidin-1-yl)-1-benzyl-2-methyl-7-(3-methyl-but-2-en-1-yl)-1,7-dihydro-purin-6-one]: the pIC50 was 6.56.

Turning to `CN(C)c1nc2nc(N3CCCC(N)C3)n(Cc3ccccc3)c2c(=O)n1C` (stereo not shown) [1(8), 8-(3-amino-piperidin-1-yl)-7-benzyl-2-dimethylamino-1-methyl-1,7-dihydro-purin-6-one trifluoroacetate], the pIC50 is 6.67.

As for `Cn1c(NCCc2ccccc2)nc2nc(N3CCCC(N)C3)n(Cc3ccccc3)c2c1=O` (stereo not shown) [1(2), 8-(3-amino-piperidin-1-yl)-7-benzyl-1-methyl-2-[(2-phenylethyl)amino]-1,7-dihydro-purin-6-one trifluoroacetate], the pIC50 was 7.38.

As for `NC1CCCN(c2nc3ncn(CC(=O)c4ccccc4)c(=O)c3n2Cc2ccccc2)C1` (stereo not shown) [1(22), 8-(3-amino-piperidin-1-yl)-7-benzyl-1-(2-oxo-2-phenyl-ethyl)-1,7-dihydro-purin-6-one trifluoroacetate], the pIC50 was 7.32.

On to `CC(C)=CCn1c(N2CCCC(N)C2)nc2ncn(Cc3cccc4ccccc34)c(=O)c21` (stereo not shown) [1(27), 8-(3-amino-piperidin-1-yl)-7-(3-methyl-but-2-en-1-yl)-1-[(naphthalen-1-yl)methyl]-1,7-dihydro-purin-6-one], for which the pIC50 was 7.72.

Turning to `CSc1nc2nc(N3CCCC(N)C3)n(Cc3ccccc3)c2c(=O)[nH]1` (stereo not shown) [1(14), 8-(3-amino-piperidin-1-yl)-7-benzyl-2-methylsulphanyl-1,7-dihydro-purin-6-one hydrochloride], the pIC50 was 6.80.

On to `Cn1c(NC2CCCCC2)nc2nc(N3CCCC(N)C3)n(Cc3ccccc3)c2c1=O` (stereo not shown) [1(5), 8-(3-amino-piperidin-1-yl)-7-benzyl-2-cyclohexylamino-1-methyl-1,7-dihydro-purin-6-one trifluoroacetate], for which the negative logarithm of the IC50 (pIC50) was 6.87.

As to `Cn1c(N)nc2nc(N3CCCC(N)C3)n(Cc3ccccc3)c2c1=O` (stereo not shown) [1(9), 2-amino-8-(3-amino-piperidin-1-yl)-7-benzyl-1-methyl-1,7-dihydro-purin-6-one trifluoroacetate], the pIC50 was 7.21.

As to `COc1ccc(Cn2cnc3nc(N4CCCC(N)C4)n(CC=C(C)C)c3c2=O)c2ccccc12` (stereo not shown) [1(28), 8-(3-amino-piperidin-1-yl)-7-(3-methyl-but-2-en-1-yl)-1-[(4-methoxy-naphthalen-1-yl)methyl]-1,7-dihydro-purin-6-one], the pIC50 is 7.24.

Consider `Cn1c(NCc2ccccc2)nc2nc(N3CCCC(N)C3)n(Cc3ccccc3)c2c1=O` (stereo not shown) [Example 1, 8-(3-amino-piperidin-1-yl)-7-benzyl-2-benzylamino-1-methyl-1,7-dihydro-purin-6-one], for which the pIC50 is 7.96.

On to `Cn1c(C#N)nc2nc(N3CCCC(N)C3)n(Cc3ccccc3)c2c1=O` (stereo not shown) [1(24), 8-(3-amino-piperidin-1-yl)-7-benzyl-2-cyano-1-methyl-1,7-dihydro-purin-6-one trifluoroacetate], for which the pIC50 is 6.95.

For `CNc1nc2nc(N3CCCC(N)C3)n(Cc3ccccc3)c2c(=O)n1C` (stereo not shown) [1(4), 8-(3-amino-piperidin-1-yl)-7-benzyl-1-methyl-2-methylamino-1,7-dihydro-purin-6-one trifluoroacetate], the pIC50 is 7.24.

Turning to `Cn1c(CC(=O)c2ccccc2)nc2nc(N3CCCC(N)C3)n(Cc3ccccc3)c2c1=O` (stereo not shown) [1(23), 8-(3-amino-piperidin-1-yl)-7-benzyl-1-methyl-2-(2-oxo-2-phenyl-ethyl)-1,7-dihydro-purin-6-one], the pIC50 is 6.80.

The record behind these values is patent US7569574B2, “Purine derivatives, the preparation thereof and their use as pharmaceutical compositions” (Boehringer Ingelheim Pharma GmbH & Co. KG, priority 2002, dated 2009).
